Experimental data published in patent publication US20180243298A1, “TRPV3 MODULATORS” (AbbVie Inc., priority 2015, published 2018).
Like-named read-outs stand apart in the source and are kept apart here.

Columns and labels:
FITC-challenged mice = test: Contact hypersensitivity (CHS) to FITC, ear swelling in mice; assay type: in vivo, mice (BALB/c); settings: reduction in ear skin thickness vs vehicle, 24 hours after FITC challenge; for inhibition in vivo at 10 mg/kg / inhibition in vivo at 100 mg/kg / inhibition in vivo at 30 mg/kg: Mus musculus, read-out: FITC % effect; for inhibition in vivo at 100 mg/kg: 100 mg/kg bid po
Procedure: (ii) In vivo Data The following protocol was used to evaluate the efficacy of a compound against contact hypersensitivity:
Young adult female BALB/c mice (18±2 g body weight at 6-8 weeks old) Charles River Laboratories) were maintained under pathogen-free conditions and housed in an animal room maintained t at temperature of 21±1° C. and a humidity of 43±5%. Induction of contact hypersensitivity (CHS) and ear thickness measurements for all animals were carried out under light anesthesia (3-5% isoflurane/oxygen) for 1-2 minutes.
Contact hypersensitivity consists of the afferent or initiation sensitizing phase, and the efferent or elicitation phase. The latter phase occurs when epidermal cells encounter a particular antigen to which the epidermal cells have previously been exposed, and is characterized in rodents by localized swelling in the skin.
Fluorescein isothiocyanate (FITC) was purchased from Sigma-Aldrich and dissolved in 1:1 in acetone/dibutylphthalate prior to epicutaneous application. Mice were sensitized by painting epicutaneously 40 uL of 0.5% FITC on the abdomen ventral skin shaved one day prior to sensitization. Six days later, mice were challenged by painting epicutaneously 20 uL total volume of 0.5% FITC on the right ear (10 uL on either side). Control mice were treated with vehicle only. Ear swelling was measured 24 hours after challenge. Treatment groups were dosed orally at a dose volume of 10 mL/kg with compounds either BID (1 hour prior to FITC challenge, 8 hours after first dose and 2 hours prior to ear swelling measurement at 24 hours post FITC challenge) or QD (1 hour prior to FITC challenge and 2 hours prior to ear swelling measurement at 24 hours post FITC challenge). Inflammation was determined by the degree of ear swelling of the hapten exposed ear compared with the untreated ear with a Quick Mini thickness-gauge caliber (Mitutoyo, Japan). The change in ear thickness after allergen treatment can be used to calculate the percent suppression of contact hypersensitivity.
The level of compound-mediated suppression of ear skin thickness in FITC-challenged mice is indicated in Table 2 wherein “A” refers to a reduction in ear skin thickness of >50%, “B” refers to a reduction in ear skin thickness of 30-50% and “C” refers to a reduction in ear skin thickness of <30% relative to vehicle-treated animals.

human TRPV3 = molecular target: T1, human TRPV3 (Homo sapiens, UniProt Q8NET8); test: Calcium flux assay (FLIPR TETRA), recombinant HEK293 cells expressing TRPV3, 2-APB response; assay type: cell-based; settings: 2-APB at its EC80
T1 construct: expressed in transfected cells; host or cells: HEK293
T1 sequence (Q8NET8 1-790): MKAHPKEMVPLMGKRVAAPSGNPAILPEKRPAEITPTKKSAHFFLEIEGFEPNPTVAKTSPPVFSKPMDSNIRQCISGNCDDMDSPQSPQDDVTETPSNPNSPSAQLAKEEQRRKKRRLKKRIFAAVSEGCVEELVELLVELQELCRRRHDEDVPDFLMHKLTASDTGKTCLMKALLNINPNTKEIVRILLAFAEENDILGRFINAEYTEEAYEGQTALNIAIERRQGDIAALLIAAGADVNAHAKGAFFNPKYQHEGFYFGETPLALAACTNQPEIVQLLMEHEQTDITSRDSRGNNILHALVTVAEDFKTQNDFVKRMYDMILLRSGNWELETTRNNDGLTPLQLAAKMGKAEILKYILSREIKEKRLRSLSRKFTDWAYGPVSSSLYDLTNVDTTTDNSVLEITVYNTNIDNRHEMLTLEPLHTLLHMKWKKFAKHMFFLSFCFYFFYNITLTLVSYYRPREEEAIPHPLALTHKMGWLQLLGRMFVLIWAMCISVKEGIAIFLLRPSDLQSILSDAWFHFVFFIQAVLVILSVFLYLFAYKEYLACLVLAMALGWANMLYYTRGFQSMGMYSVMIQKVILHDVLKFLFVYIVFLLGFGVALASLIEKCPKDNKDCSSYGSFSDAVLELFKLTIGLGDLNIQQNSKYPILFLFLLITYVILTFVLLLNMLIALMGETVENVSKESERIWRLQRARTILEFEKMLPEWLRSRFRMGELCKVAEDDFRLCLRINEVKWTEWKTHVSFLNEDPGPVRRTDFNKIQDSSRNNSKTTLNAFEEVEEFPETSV
In short: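 HEK293 cells stably expressing human or mouse TRPV3, loaded with Calcium-4 dye for 90–120 min, read on FLIPR TETRA. Peak fluorescence rise over baseline expressed as percent of the maximal response to 2-APB at its EC80 without compound.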

Molecule | IC50 (human TRPV3) [nM] | also measured
N-[5-(4-cyanophenyl)-4-(trifluoromethyl)-1,3-thiazol-2-yl]-4,6-dimethoxypyrimidine-5-carboxamide [Example 41] | < 50 | FITC % effect (FITC-challenged mice; 30 mg/kg bid po): C (a reduction in ear skin thickness of <30% relative to vehicle-treated animals)
COc1ncnc(OC)c1C(=O)Nc1nc(C(F)(F)F)c(CNCC(C)C)s1 [Example 52, 4,6-dimethoxy-N-[5-{[(2-methylpropyl)amino]methyl}-4-(trifluoromethyl)-1,3-thiazol-2-yl]pyrimidine-5-carboxamide] | 50 to 100 | inhibition in vivo at 10 mg/kg (FITC-challenged mice; 10 mg/kg qd po): 30 to 50%
COc1ncnc(OC)c1C(=O)Nc1nc(C(F)(F)F)c(-c2ccnc(C#N)c2)s1 [Example 66, N-[5-(2-cyanopyridin-4-yl)-4-(trifluoromethyl)-1,3-thiazol-2-yl]-4,6-dimethoxypyrimidine-5-carboxamide] | 50 to 100 | inhibition in vivo at 100 mg/kg (FITC-challenged mice): > 50%
COc1ncnc(OC)c1C(=O)Nc1nc(C(F)(F)F)c(-c2cncc(C(F)(F)F)c2)s1 [Example 196, 4,6-dimethoxy-N-{4-(trifluoromethyl)-5-[5-(trifluoromethyl)pyridin-3-yl]-1,3-thiazol-2-yl}pyrimidine-5-carboxamide] | < 50 | inhibition in vivo at 30 mg/kg (FITC-challenged mice; 30 mg/kg bid po): < 30%
COc1ncnc(OC)c1C(=O)Nc1nc(C(F)(F)F)c(-c2cccc(C#N)n2)s1 [Example 31, N-[5-(6-cyanopyridin-2-yl)-4-(trifluoromethyl)-1,3-thiazol-2-yl]-4,6-dimethoxypyrimidine-5-carboxamide] | < 50 | inhibition in vivo at 30 mg/kg (FITC-challenged mice; 30 mg/kg qd po): > 50%
COc1ncnc(OC)c1C(=O)Nc1nc(C(F)(F)F)c(-c2cc(C(F)(F)F)nn2C)s1 [Example 65, 4,6-dimethoxy-N-{5-[1-methyl-3-(trifluoromethyl)-1H-pyrazol-5-yl]-4-(trifluoromethyl)-1,3-thiazol-2-yl}pyrimidine-5-carboxamide] | < 50 | inhibition in vivo at 30 mg/kg (FITC-challenged mice; 30 mg/kg bid po): < 30%
COc1ncnc(OC)c1C(=O)Nc1nc(C(F)(F)F)c(CN2CC[C@@H](F)C2)s1 [Example 58, N-[5-{[(3R)-3-fluoropyrrolidin-1-yl]methyl}-4-(trifluoromethyl)-1,3-thiazol-2-yl]-4,6-dimethoxypyrimidine-5-carboxamide] | 50 to 100 | inhibition in vivo at 10 mg/kg (FITC-challenged mice; 10 mg/kg qd po): 30 to 50%
COc1ncnc(OC)c1C(=O)N(COP(=O)(O)O)c1nc(-c2ccc(C(F)(F)F)cn2)cs1 [Example 74, ([(4,6-dimethoxypyrimidin-5-yl)carbonyl]{4-[5-(trifluoromethyl)pyridin-2-yl]-1,3-thiazol-2-yl}amino)methyl dihydrogen phosphate] |  | inhibition in vivo at 100 mg/kg (FITC-challenged mice): > 50%
COc1ncnc(OC)c1C(=O)Nc1nc(C(F)(F)F)c(CN2CCC(F)CC2)s1 [Example 53, N-{5-[(4-fluoropiperidin-1-yl)methyl]-4-(trifluoromethyl)-1,3-thiazol-2-yl}-4,6-dimethoxypyrimidine-5-carboxamide] | < 50 | inhibition in vivo at 10 mg/kg (FITC-challenged mice; 10 mg/kg bid po): 30 to 50%
COc1ncnc(OC)c1C(=O)Nc1nc(C(F)(F)F)c(-c2cncc(F)c2)s1 [Example 27, N-[5-(5-fluoropyridin-3-yl)-4-(trifluoromethyl)-1,3-thiazol-2-yl]-4,6-dimethoxypyrimidine-5-carboxamide] | 50 to 100 | inhibition in vivo at 30 mg/kg (FITC-challenged mice; 30 mg/kg bid po): < 30%
COc1ncnc(OC)c1C(=O)Nc1nc(C(F)(F)F)c(CN2CCC(OC)CC2)s1 [Example 48, 4,6-dimethoxy-N-{5-[(4-methoxypiperidin-1-yl)methyl]-4-(trifluoromethyl)-1,3-thiazol-2-yl}pyrimidine-5-carboxamide] | 100 to 500 | inhibition in vivo at 30 mg/kg (FITC-challenged mice; 30 mg/kg bid po): < 30%
COc1ncnc(OC)c1C(=O)Nc1nc(C(F)(F)F)c(-c2cccnc2C#N)s1 [Example 42, N-[5-(2-cyanopyridin-3-yl)-4-(trifluoromethyl)-1,3-thiazol-2-yl]-4,6-dimethoxypyrimidine-5-carboxamide] | < 50 | inhibition in vivo at 30 mg/kg (FITC-challenged mice; 30 mg/kg bid po): < 30%
COc1ncnc(OC)c1C(=O)Nc1nc(C(F)(F)F)c(-c2cnc(C(F)(F)F)nc2)s1 [Example 202, 4,6-dimethoxy-N-{4-(trifluoromethyl)-5-[2-(trifluoromethyl)pyrimidin-5-yl]-1,3-thiazol-2-yl}pyrimidine-5-carboxamide] | < 50 | inhibition in vivo at 30 mg/kg (FITC-challenged mice; 30 mg/kg bid po): < 30%
COc1ncnc(OC)c1C(=O)Nc1nc(C(F)(F)F)c(-c2ccnc(C(C)(C)C#N)c2)s1 [Example 33, N-{5-[2-(2-cyanopropan-2-yl)pyridin-4-yl]-4-(trifluoromethyl)-1,3-thiazol-2-yl}-4,6-dimethoxypyrimidine-5-carboxamide] | 50 to 100 | inhibition in vivo at 30 mg/kg (FITC-challenged mice; 30 mg/kg qd po): > 50%
COc1ncnc(OC)c1C(=O)Nc1nc(C(F)(F)F)c(-c2cccc(C(F)(F)F)n2)s1 [Example 30, 4,6-dimethoxy-N-{4-(trifluoromethyl)-5-[6-(trifluoromethyl)pyridin-2-yl]-1,3-thiazol-2-yl}pyrimidine-5-carboxamide] | < 50 | 
CO/N=C(\C)c1sc(NC(=O)c2c(OC)ncnc2OC)nc1C(F)(F)F [Example 135, 4,6-dimethoxy-N-{5-[(1E)-N-methoxyethanimidoyl]-4-(trifluoromethyl)-1,3-thiazol-2-yl}pyrimidine-5-carboxamide] | < 50 | 
CCCc1sc(NC(=O)c2c(OC)ncnc2OC)nc1C(F)(F)F [Example 34, 4,6-dimethoxy-N-[5-propyl-4-(trifluoromethyl)-1,3-thiazol-2-yl]pyrimidine-5-carboxamide] | < 50 | 
COc1ncnc(OC)c1C(=O)Nc1nc(C(F)(F)F)c(C2=CCOCC2)s1 [Example 38, N-[5-(3,6-dihydro-2H-pyran-4-yl)-4-(trifluoromethyl)-1,3-thiazol-2-yl]-4,6-dimethoxypyrimidine-5-carboxamide] | < 50 | 
COc1ncnc(OC)c1C(=O)Nc1nc(C(F)(F)F)c(-c2cccc(S(=O)(=O)N3CCOCC3)c2)s1 [Example 195, 4,6-dimethoxy-N-{5-[3-(morpholin-4-ylsulfonyl)phenyl]-4-(trifluoromethyl)-1,3-thiazol-2-yl}pyrimidine-5-carboxamide] | 50 to 100 | 
COc1ncnc(OC)c1C(=O)Nc1nc(C(F)(F)F)c(C2CCCOC2)s1 (single isomer, unassigned) [Example 149, 4,6-dimethoxy-N-{5-[(3S*)-tetrahydro-2H-pyran-3-yl]-4-(trifluoromethyl)-1,3-thiazol-2-yl}pyrimidine-5-carboxamide] | > 1000 | 
COc1ncnc(OC)c1C(=O)Nc1nc(-c2ccc(OC(F)(F)F)cc2)cs1 [Example 93, 4,6-dimethoxy-N-{4-[4-(trifluoromethoxy)phenyl]-1,3-thiazol-2-yl}pyrimidine-5-carboxamide] | 100 to 500 | 
